Experimental data published in US7462464B1, “Method for the detection of antimicrobial residues in food and bodily fluid samples” (priority 1999, dated 2008).

Columns and labels:
Assay type in all cases: cell-based
[1] = test system: Bacillus stearothermophilus; assay: Premi Test microbial inhibition test, spiked bovine kidney pre-urine; settings: part of sample with methylcellulose 1.5%, controls yellow after 185 minutes
Description: Fresh kidneys of 7 negative (negative in the sense of the presence of antibiotics) cows were obtained from a slaughterhouse. To obtain samples for testing for the presence or absence of antimicrobial drug residues, the rosettes of the kidneys were divided into pieces. The pieces were gently squeezed using a garlic press to obtain pre-urine.
(§1) The samples were then examined using microbial inhibition test ampoules produced according to the methods described in EP 0005891 with the nutrients present in the agar. The said test is also known as Premi®Test (commercially available from DSM N.V., Delft, The Netherlands).
100 μl of each of the 7 squeezed samples (pre-urine) was added to the test ampoules and heated for 10 minutes at 80° C. in a waterbath, the ampoules were immediately placed in a waterbath of 64° C. and incubated following the instructions of the manufacturer.
The experiment was executed as described in Example 1. However now to a part of the pre-urine sample the thickening agent methylcellulose (4000 c.p.i., Sigma) was added to a final concentration of 1.5%. Also spiked samples were prepared following the method described in Example 6.

[2] = test system: Bacillus stearothermophilus; assay: Premi Test microbial inhibition test, spiked chicken meat juice with thickening agent
Experimental: as §1
Fresh chicken breast meat of a negative chicken was obtained from a slaughterhouse (negative in the sense of the presence of antibiotics). To obtain meat fluid for further testing pieces of meat were heated for 10 minutes at 64° C. and gently sqeezed using a garlic press. Spiked samples were prepared by adding Amoxicillin (0, 5 and 10 ppb), Oxytetracycline (0, 75 and 100 ppb) or Sulphadiazine (0, 75 and 100 ppb) to the meat juice.
To a part of said samples the thickening agent methylcellulose (4000 c.p.i., Sigma) was added to a final concentration of 1.5%.
100 μl of each sample was added to the Premi®Test ampoules (in duplicate) following the procedure described in Example 1. However, since a thickening agent was added, the pre-incubation step was not required anymore. Also the heating of the samples for 10 minutes at 80° C. was not required for this specific sample.
In addition a similar experiment was executed. However, now samples containing 10 ppb of Amoxycillin or 200 ppb of Oxytetracycline were prepared and the thickening agent bovine albumine (Sigma) was added to a final concentration of 6%.

[3] = test system: Bacillus stearothermophilus; assay: Microbial inhibition test ampoules (EP 0005891), spiked raw milk; settings: with or without bovine albumine 6% or heating 10 minutes at 80° C., controls yellow after 160-185 minutes
Experimental: Raw milk samples of negative cows were obtained from a farmer (negative in the sense of the presence of antibiotics). Spiked samples were prepared by adding Penicillin G to the milk (0, 4 and 6 ppb). To a part of said samples the thickening agent bovine albumine (Sigma) was added to a final concentration of 6%. The samples were then examined using microbial inhibition test ampoules produced according to the method described in EP 0005891 with the nutrients in the agar. 100 μl of milk was added to the test ampoules. A part of the test ampoules with the raw milk sample was heated for 10 minutes at 80° C. as described in Example 1. All experiments were executed in five fold. The tests were further incubated following the methods described in Example 1.

[4] = test system: Bacillus stearothermophilus; assay: Delvotest microbial inhibition test, spiked egg samples; settings: heated 10 minutes at 80° C., incubated at 64° C., read after 140 minutes
Experimental: A hole of approximately 1-2 cm2 was made in the egg, the egg yolk was pricked and the egg was placed with the hole down on a bottle allowing the egg white and egg yolk to drip into the bottle. After the egg had emptied, the bottle was closed and the sample was homogenized by shaking. To inactivate the natural inhibiting compounds present in the egg sample, 100 μl of each of the 5 samples was added on Delvotest® ampoules. The test was produced according to the methods described in EP 0005891 with the nutrients present in the agar. After heating for 10 minutes at 80° C. in a waterbath, the ampoules were immediately placed in a waterbath at 64° C. and incubated following the instructions of the producer. […] Egg samples were obtained according to the method described in Example 3. The samples were spiked by adding Penicillin G (0 and 4 ppb) or Sulphadiazine (0 and 100 ppb). The egg samples were added to Delvotest® ampoules (see Example 3) according to the method described in this invention: heated for 10 minutes at 80° C., and then, immediately placed in a waterbath at 64° C. and incubated following the instructions of the manufacturer.

CC1(C)S[C@@H]2[C@H](NC(=O)[C@H](N)c3ccc(O)cc3)C(=O)N2[C@H]1C(=O)O [Amoxicillin]
remained purple: test colour / result (purple = positive) ([2]; chicken meat juice spiked with 10 ppb, bovine albumine 6%, after 165 minutes)
remained purple (positive): test colour / result (purple = positive) ([1]; pre-urine spiked with 5 ppb) | test colour / result (purple = positive) ([1]; pre-urine spiked with 10 ppb) | test colour / result (purple = positive) ([2]; chicken meat juice spiked with 5 ppb, part of samples with methylcellulose 1.5%, after 160 minutes) | test colour / result (purple = positive) ([2]; chicken meat juice spiked with 10 ppb, part of samples with methylcellulose 1.5%, after 160 minutes)

CC1(C)S[C@@H]2[C@H](NC(=O)Cc3ccccc3)C(=O)N2[C@H]1C(=O)O [Penicillin G]
remained purple (positive): test colour / result (purple = positive) ([3]; raw milk spiked with 4 ppb) | test colour / result (purple = positive) ([3]; raw milk spiked with 6 ppb) | test colour / result (purple = positive, growth of test organism inhibited) ([4]; egg sample spiked with 4 ppb)

Nc1ccc(S(=O)(=O)Nc2ncccn2)cc1 [Sulphadiazine]
remained purple (positive): test colour / result (purple = positive) ([1]; pre-urine spiked with 75 ppb) | test colour / result (purple = positive) ([1]; pre-urine spiked with 100 ppb) | test colour / result (purple = positive, growth of test organism inhibited) ([4]; egg sample spiked with 100 ppb) | test colour / result (purple = positive) ([2]; chicken meat juice spiked with 75 ppb, part of samples with methylcellulose 1.5%, after 160 minutes) | test colour / result (purple = positive) ([2]; chicken meat juice spiked with 100 ppb, part of samples with methylcellulose 1.5%, after 160 minutes)
